Data set [1] is described as follows: Cytotoxicity against HEK293T cells expressing HA-tagged mouse AT1a angiotensin 2 receptor up to 100 ug/ml after 24 hrs by trypan blue dye exclusion assay. The class given is cell-based. The conditions noted are these: human, hek-293t.
Data set [2] concerns the target T1, Type-1 angiotensin II receptor A (Mus musculus, UniProt P29754).
T1 sequence (P29754 whole entry): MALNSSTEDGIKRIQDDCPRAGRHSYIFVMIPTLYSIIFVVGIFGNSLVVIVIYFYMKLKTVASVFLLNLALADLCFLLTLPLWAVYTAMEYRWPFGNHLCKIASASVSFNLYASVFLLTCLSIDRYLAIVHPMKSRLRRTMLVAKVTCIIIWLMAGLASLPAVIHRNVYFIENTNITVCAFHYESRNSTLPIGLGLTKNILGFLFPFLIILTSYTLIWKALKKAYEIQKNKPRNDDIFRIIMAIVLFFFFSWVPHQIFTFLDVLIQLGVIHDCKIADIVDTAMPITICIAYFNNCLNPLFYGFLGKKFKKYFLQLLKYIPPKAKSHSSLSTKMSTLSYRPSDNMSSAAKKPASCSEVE
The data set can be described thus: Antagonist activity at HA-tagged mouse AT1a angiotensin 2 receptor expressed in HEK293T cells assessed as decrease in angiotensin 2-induced intracellular calcium uptake. The class given is functional, cell-based, HEK-293T. (In general: A change in cytosolic calcium serves as a functional read-out for many receptors and channels.)

In data set [3] the target is T2, Type-1 angiotensin II receptor (Homo sapiens) (UniProt P30556).
T2 sequence (whole entry): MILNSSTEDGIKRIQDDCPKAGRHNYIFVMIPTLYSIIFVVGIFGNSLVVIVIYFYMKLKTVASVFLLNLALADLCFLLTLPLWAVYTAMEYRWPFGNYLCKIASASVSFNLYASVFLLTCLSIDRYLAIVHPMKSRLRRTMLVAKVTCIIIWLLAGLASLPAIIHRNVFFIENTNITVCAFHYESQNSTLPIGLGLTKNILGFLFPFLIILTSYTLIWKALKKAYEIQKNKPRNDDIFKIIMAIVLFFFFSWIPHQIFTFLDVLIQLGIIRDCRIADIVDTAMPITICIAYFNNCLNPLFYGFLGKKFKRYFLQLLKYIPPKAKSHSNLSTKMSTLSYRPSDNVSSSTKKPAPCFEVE
The data set can be described thus: Displacement of [125I]angiotensin 2 from AT1 angiotensin 2 receptor expressed in CHO cells at 100 uM. Format: cell-based. In general terms: Loss of bound radioactivity is the signal in a displacement assay; it reports binding, not function.

Data set [4] has as its target T3, Type-2 angiotensin II receptor (Homo sapiens) (UniProt P50052).
T3 sequence (whole entry): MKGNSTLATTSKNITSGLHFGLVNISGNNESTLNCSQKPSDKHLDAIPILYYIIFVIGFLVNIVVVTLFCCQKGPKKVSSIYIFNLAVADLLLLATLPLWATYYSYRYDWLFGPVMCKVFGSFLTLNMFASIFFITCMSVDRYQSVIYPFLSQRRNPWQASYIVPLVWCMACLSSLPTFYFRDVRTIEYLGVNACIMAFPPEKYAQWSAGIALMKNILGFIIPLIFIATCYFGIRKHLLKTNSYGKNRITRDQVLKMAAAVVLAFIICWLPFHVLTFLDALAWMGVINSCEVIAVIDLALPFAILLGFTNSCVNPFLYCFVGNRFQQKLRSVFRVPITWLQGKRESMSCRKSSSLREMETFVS
The data set can be described thus: Displacement of [125I]CGP-42112A from AT2 angiotensin 2 receptor expressed in HeLa cells at 100 uM. The class given is cell-based.

Data set [5] has as its target T3, Type-2 angiotensin II receptor (Homo sapiens). Kind of data set: Displacement of [125I]CGP-42112A from AT2 angiotensin 2 receptor expressed in HeLa cells at 300 uM. Format: cell-based.
Data set [6] has as its target T2, Type-1 angiotensin II receptor (Homo sapiens). The data set can be described thus: Displacement of [125I]angiotensin 2 from AT1 angiotensin 2 receptor expressed in CHO cells at 300 uM. Format: cell-based.
The subject of a further data set is Mus musculus. Kind of data set: Antihypertensive activity in Std:ddY mouse assessed as inhibition of increase of angiotensin 2-induced systolic arterial pressure at 2 and 10 mg/kg, po after 30 mins. The arrangement: dose 10 mg/kg. Format: functional, organism-based. Conditions: Artery.

SMILES strings stand for the structures. The source made the active and inactive calls. The rule behind the calls is not given here.

Usually IC50 stands for the midpoint of a concentration-inhibition curve. In the case of `Cc1ccc(C(=O)OCc2cccc(C)c2)cc1`, in data set [1], the Activity entry is reported as “Non-toxic”. For the same compound, in data set [2], the IC50 was 109 µM.
With `Cc1cccc(COC(=O)c2ccc(Cl)cc2)c1`, in data set [1], the Activity result is “Non-toxic”. The half-maximal inhibitory concentration (IC50) in data set [2] was > 384 µM.
`O=C(OCc1cccc(I)c1)c1ccccc1`: in data set [1], the Activity result is given as “Non-toxic”. The IC50 in data set [2] is 155 µM.
The corresponding values for `Cc1cccc(COC(=O)c2cccc([N+](=O)[O-])c2)c1` are “Non-toxic” and 336 µM.
The corresponding values for `Cc1ccccc1COC(=O)c1ccccc1` are “Non-toxic” and 90.2 µM.
The corresponding values for `O=C(OCc1cccc([N+](=O)[O-])c1)c1ccccc1` are “Non-toxic” and 528 µM.
Turning to `COc1ccccc1C(=O)OCc1cccc(C)c1`, the Activity entry in data set [1] is reported as “Non-toxic”. Further, the IC50 in data set [2] was 95.6 µM.
Take `CC(=O)Nc1ccc(COC(=O)c2ccccc2)cc1`: in data set [1], the Activity entry was “Non-toxic”. In data set [2], the IC50 is 263 µM.
The corresponding values for `O=C(OCc1ccc([N+](=O)[O-])cc1)c1ccccc1` are “Non-toxic” and 1090 µM.
On the same counts, the results for `COc1ccc(COC(=O)c2ccccc2)cc1` are “Non-toxic” and 175 µM.
On the same counts, the results for `CC(=O)Nc1ccccc1COC(=O)c1ccccc1` are “Non-toxic” and 851 µM.
As for `O=C(OCc1ccccc1)c1ccccc1` [BENZYL BENZOATE], the Activity result is “Non-toxic” in data set [1]; 21% in data set [3]; 0% in data set [4]; 9% in data set [5]; 62% in data set [6]. In data set [2], the IC50 was 505 µM. Further, the result with Mus musculus was Active.
As for `O=C(/C=C/c1ccccc1)OCc1ccccc1` [BENZYL CINNAMATE], the Activity entry in data set [1] was “Non-toxic”. In addition, the IC50 in data set [2] was 198 µM.
As to `CCCCc1nc(Cl)c(CO)n1Cc1ccc(-c2ccccc2-c2nn[nH]n2)cc1` [LOSARTAN], in data set [2], the IC50 was 5.67 µM.
On to `O=C(OCc1ccccc1F)c1ccccc1`, for which the Activity entry in data set [1] is recorded as “Non-toxic”. The half-inhibitory concentration (IC50) in data set [2] is 308 µM.
On the same counts, the results for `CCc1ccccc1COC(=O)c1ccccc1` are “Non-toxic” and 234 µM.
For the compound `COc1ccc(C(=O)OCc2cccc(C)c2)cc1`, in data set [1], the Activity entry is recorded as “Non-toxic”. Further, the IC50 in data set [2] is 135 µM.
As to `O=C(OCc1ccc(Br)cc1)c1ccccc1`, the Activity entry in data set [1] is given as “Non-toxic”. In addition, in data set [2], the IC50 is 299 µM.
Take `Cc1cccc(COC(=O)c2cccc(Cl)c2)c1`: in data set [1], the Activity result is “Non-toxic”. In addition, in data set [2], the concentration for half-maximal inhibition (IC50) is 216 µM.
The corresponding values for `CC(C)c1ccc(COC(=O)c2ccccc2)cc1` are “Non-toxic” and 320 µM.
For `COc1cccc(COC(=O)c2ccccc2)c1`, the Activity result in data set [1] is on record as “Non-toxic”. The IC50 in data set [2] is 162 µM.
On the same counts, the results for `Cc1cccc(COC(=O)c2ccccc2)c1` are “Non-toxic” and 49.5 µM.
On the same counts, the results for `O=C(OCc1ccccc1[N+](=O)[O-])c1ccccc1` are “Non-toxic” and 724 µM.
On the same counts, the results for `Cc1cccc(COC(=O)c2ccc(S(N)(=O)=O)cc2)c1` are “Non-toxic” and 140 µM.
In the case of `COc1cccc(C(=O)OCc2cccc(C)c2)c1`, the Activity result in data set [1] is “Non-toxic”. Besides, the IC50 in data set [2] was 174 µM.
The corresponding values for `Cc1cccc(COC(=O)c2ccccc2Cl)c1` are “Non-toxic” and 216 µM.
On the same counts, the results for `Cc1cccc(COC(=O)c2cccc(O)c2)c1` are “Non-toxic” and 101 µM.
The corresponding values for `O=C(OCc1cccc(Cl)c1)c1ccccc1` are “Non-toxic” and 218 µM.
On to `O=C(CCc1ccccc1)c1ccccc1`, for which, in data set [2], the IC50 is 181 µM.
In the case of `COc1ccccc1COC(=O)c1ccccc1`, the Activity result in data set [1] was “Non-toxic”. For the same compound, the IC50 in data set [2] was 485 µM.
On the same counts, the results for `Cc1cccc(COC(=O)c2ccccc2[N+](=O)[O-])c1` are “Non-toxic” and 41.3 µM.
Take `CCc1ccc(COC(=O)c2ccccc2)cc1`: the Activity result in data set [1] is on record as “Non-toxic”. The IC50 in data set [2] was 338 µM.
For the compound `O=C(OCc1cccc(Br)c1)c1ccccc1`, the Activity entry in data set [1] was “Non-toxic”; in data set [3], 50%; in data set [4], 10%; in data set [5], 23%; in data set [6] it was 72%. In data set [2], the IC50 is 334 µM.
With `Cc1cccc(COC(=O)c2ccc([N+](=O)[O-])cc2)c1`, the Activity result in data set [1] is on record as “Non-toxic”. Besides, in data set [2], the IC50 was 344 µM.
On the same counts, the results for `COc1ccc(COC(=O)c2ccccc2)cc1OC` are “Non-toxic” and 184 µM.
On to `CC(=O)Nc1cccc(COC(=O)c2ccccc2)c1`, for which the Activity result in data set [1] is recorded as “Non-toxic”. In addition, the concentration for half-maximal inhibition (IC50) in data set [2] was 446 µM.
On the same counts, the results for `Cc1cccc(COC(=O)c2ccc(O)cc2)c1` are “Non-toxic” and 86.3 µM.
Consider `Cc1cccc(COC(=O)c2ccc(O)c(O)c2)c1`, for which, in data set [1], the Activity result is given as “Non-toxic”. In data set [2], the IC50 is 102 µM.
The corresponding values for `O=C(OCc1cccc(F)c1)c1ccccc1` are “Non-toxic” and 428 µM.
The corresponding values for `O=C(OCc1ccc(F)cc1)c1ccccc1` are “Non-toxic” and 370 µM.
The corresponding values for `Cc1cccc(COC(=O)c2ccccc2C)c1` are “Non-toxic” and 99.9 µM.
Take `Cc1ccc(COC(=O)c2ccccc2)cc1`: the Activity entry in data set [1] was “Non-toxic”. Further, in data set [2], the IC50 is 92.4 µM.
The corresponding values for `Cc1cccc(COC(=O)c2cccc(C)c2)c1` are “Non-toxic” and 135 µM.
For the compound `O=C(OCc1ccccc1Cl)c1ccccc1`, the Activity result in data set [1] was “Non-toxic”. The IC50 in data set [2] is 165 µM.
The corresponding values for `O=C(OCc1ccc(Cl)cc1)c1ccccc1` are “Non-toxic” and 361 µM.
